Test results reported in patent US11999695B2, “YAP1 inhibitors that target the interaction of YAP1 with OCT4” (H. LEE MOFFITT CANCER CENTER AND RESEARCH INSTITUTE, INC., priority 2016, dated 2024).

Key:
[1] = tested on: A549 lung adenocarcinoma cells; assay: Cytokine array on A549 cells (FIG. 39); format: cell-based
Source text: FIG. 39 is a graph showing results from a cytokine array performed on A549 cells treated with SR2-033.

Sox2 = Sox2 protein expression, gel images (FIG. 16); format: cell-based; conditions: adenocarcinoma cells
Source text: FIG. 16 is a group of gel images showing Sox2 protein expression was reduced by SR-2033 in adenocarcinoma cells.

[2] = tested on: primary cancer associated fibroblasts; assay: Cytokine array (FIG. 40); format: cell-based
binding of Oct4 to YAP1 = target: T1, binding of Oct4 to YAP1 (Homo sapiens, UniProt P46937); assay: Immunoprecipitation-Western blot of Oct4-YAP1 binding (FIG. 15); format: cell-based; conditions: 5 μM, 72 hours
T1 construct: Lysates were prepared from the cells, and immunoprecipitated with an antibody to OCt4; endogenous in cells; host or cells: A549 and H1650 cells
T1 sequence (P46937 whole entry): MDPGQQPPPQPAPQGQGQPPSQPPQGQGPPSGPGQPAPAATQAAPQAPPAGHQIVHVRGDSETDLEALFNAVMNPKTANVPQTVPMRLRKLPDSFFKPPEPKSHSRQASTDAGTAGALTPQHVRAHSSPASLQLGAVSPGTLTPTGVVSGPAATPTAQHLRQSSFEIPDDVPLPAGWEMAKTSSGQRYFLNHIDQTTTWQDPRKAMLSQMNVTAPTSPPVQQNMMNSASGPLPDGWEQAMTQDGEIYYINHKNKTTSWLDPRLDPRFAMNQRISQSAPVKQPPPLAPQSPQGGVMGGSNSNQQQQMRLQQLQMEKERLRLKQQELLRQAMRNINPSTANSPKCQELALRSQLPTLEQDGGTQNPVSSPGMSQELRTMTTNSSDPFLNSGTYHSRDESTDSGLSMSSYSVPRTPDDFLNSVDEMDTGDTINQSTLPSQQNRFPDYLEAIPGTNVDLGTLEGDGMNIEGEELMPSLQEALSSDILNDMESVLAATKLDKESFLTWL
Protocol: FIG. 15 is a group of gel images showing peptidomimetic compounds SR2-022, SR2-030, and SR2-033 reduced YAP1-Oct4 interaction as detected by IP-WB. An immunoprecipitation-Western blot experiment was conducted to assess if the indicated compounds could disrupt the binding of Oct4 to YAP1. IP-western blots were conducted using the protocols described in Bora-Singhal et al, 2015. Essentially, cells were treated with 5 μM of the indicated compounds for 72 hours. Lysates were prepared from the cells, and immunoprecipitated with an antibody to OCt4, or a control IgG. Lysates as well as the immunoprecipitates were resoled by a polyacrylamide gel and a western blot was conducted using an antibody to YAP1.

YAP1:OCT4 = YAP1:OCT4 (Homo sapiens, UniProt P46937); assay: In vitro YAP1:OCT4 ELISA binding assay; conditions: YAP1:OCT4 disruption
Chain of YAP1:OCT4 (P46937 whole entry): as above
Protocol: Activities of Compounds in the In Vitro YAP1:OCT4 ELISA Binding Assay
Selected compounds were assayed in a YAP1:OCT4 binding assay.

## COC(=O)[C@H](Cc1ccc(OCc2ccccc2)cc1)NC(=O)CC1CCN(C(=O)CCc2ccc(C#N)cc2)CC1 [SR2-033, Methyl (S)-3-(4-(benzyloxy)phenyl)-2-(2-(1-(3-(4-cyanophenyl)propanoyl)piperidin-4-yl)acetamido)propanoate]
[1]
  levels of secreted cytokines (cytokine array): altered
Sox2
  Sox2 protein expression: reduced
[2]
  levels of secreted cytokines (cytokine array): altered
Binding of Oct4 to YAP1; A549 cells
  YAP1-Oct4 interaction detected by IP-WB: completely abolished
Binding of Oct4 to YAP1; H1650 cells
  YAP1-Oct4 interaction detected by IP-WB: significantly reduced
YAP1:OCT4
  IC50: < 10 µM
